Molecules are shown by their SMILES.

We go through 13 compounds from patent publication US10508098B2, “Quinazolinones and azaquinazolinones as ubiquitin-specific protease 7 inhibitors” (FORMA Therapeutics, Inc., priority 2015, dated 2019).

The target of the experiment is USP7 (Homo sapiens (Human), UniProt Q93009). The experiment in a line: USP7 Assays A and B (Ubiquitin-Rhodamine 110 assay). Conditions: USP7 (208-1102) 6*His; substrate Ub-Rh110 25 nM; assays A and B not distinguished. Type of experiment: biochemical. The procedure:
Example 9: USP7 Assay A (Ubitquin-Rhodamine 110 Assay)
Each assay was performed in a final volume of 15 μL in assay buffer containing 20 mM Tris-HCl (pH 8.0, (1M Tris-HCl, pH 8.0 solution; Corning 46-031-CM)), 1 mM GSH (L-Glutathione reduced; Sigma #G4251), 0.03% BGG (0.22 μM filtered, Sigma, #G7516-25G), and 0.01% Triton X-100 (Sigma, #T9284-10L). Nanoliter quantities of either an 8-point or 10-point, 3-fold serial dilution in DMSO was pre-dispensed into assay plates (Perkin Elmer, ProxiPlate-384 F Plus, #6008269) for a final test concentration range of either 25 μM to 11 nM or 25 μM to 1.3 nM, respectively. The final concentration of the enzyme (USP7, construct USP7 (208-1102) 6*His, Viva Biotech) in the assay was 62.5 pM. Final substrate (Ub-Rh110; Ubiquitin-Rhodamine 110, R&D Systems #U-555) concentration was 25 nM with [Ub-Rh110]<<Km. 5 μL of 2× enzyme was added to assay plates (pre-stamped with compound) preincubated with USP7 for 30 min and then 5 μL of 2×Ub-Rh110 was added to assay plates. Plates were incubated stacked for 20 min at room temperature before 5 μL of stop solution (final concentration of 10 mM citric acid in assay buffer (Sigma, #251275-500G)). Fluorescence was read on the Envision (Excitation at 485 nm and Emission at 535 nm; Perkin Elmer) or on the PheraSTAR (Excitation at 485 nm and Emission at 535 nm; BMG Labtech).
Example 10: USP7 Assay B (Ubitquin-Rhodamine 110 Assay)
Each assay was performed in a final volume of 20 μL in assay buffer containing 20 mM Tris-HCl (pH 8.0, (1M Tris-HCl, pH 8.0 solution; Corning 46-031-CM)), 2 mM CaCl2 (1M Calcium Chloride solution; Sigma #21114) 1 mM GSH (L-Glutathione reduced; Sigma #G4251), 0.01% Prionex (0.22 μM filtered, Sigma #G-0411), and 0.01% Triton X-100. Stock compound solutions were stored at −20° C. as 10 mM in DMSO. Up to 1 month prior to the assay, 2 mM test compounds were pre-dispensed into assay plates (Black, low volume; Corning #3820) and frozen at −20° C. Prestamped assay plates were allowed to come to room temperature on the day of the assay. For the screen, 100 nL of 2 mM was pre-dispensed for a final screening concentration of 10 μM (DMSO(fc)=0.5%). For follow-up studies, 250 nL of an 8-point, 3-fold serial dilution in DMSO was pre-dispensed into assay plates for a final test concentration of 25 μM-11 nM (1.25% DMSO final concentration). Unless otherwise indicated, all follow-up assays were run on triplecate plates. Enzyme (USP7, construct Met (208-1102)-TEV-6*His; Viva Q93009-1) concentration and incubation times were optimized for the maximal signal-to-background while maintaining initial velocity conditions at a fixed substrate concentration. The final concentration of the enzyme in the assay was either 75 pM or 250 pM. Final substrate (Ub-Rh110; Ubiquitin-Rhodamine 110, R&D Systems (biotechne)#U-555) concentration was 25 nM with [Ub-Rh110]<<Km. Pre-stamped with compounds were either not preincubated or preincubated with USP7 between 30 to 120 min prior to the addition of 10 μL of 2×Ub-Rh110 to compound plates. Plates were incubated stacked for either 23 or 45 min at room temperature before fluorescence was read on the Envision (Excitation at 485 nm and Emission at 535 nm; Perkin Elmer) or on the PheraSTAR (Excitation at 485 nm and Emission at 535 nm; BMG Labtech).
Data from USP7 Assays A and B were reported as percent inhibition (inh) compared with control wells based on the following equation: % inh=1−((FLU−AveLow)/(AveHigh−AveLow)) where FLU=measured Fluorescence. AveLow=average Fluorescence of no enzyme control (n=16). AveHigh=average Fluorescence of DMSO control (n=16). IC50 values were determined by curve fitting of the standard 4 parameter logistic fitting algorithm included in the Activity Base software package: IDBS XE Designer Model205. Data is fitted using the Levenburg Marquardt algorithm.

USP7, sequence (Q93009 208-1102): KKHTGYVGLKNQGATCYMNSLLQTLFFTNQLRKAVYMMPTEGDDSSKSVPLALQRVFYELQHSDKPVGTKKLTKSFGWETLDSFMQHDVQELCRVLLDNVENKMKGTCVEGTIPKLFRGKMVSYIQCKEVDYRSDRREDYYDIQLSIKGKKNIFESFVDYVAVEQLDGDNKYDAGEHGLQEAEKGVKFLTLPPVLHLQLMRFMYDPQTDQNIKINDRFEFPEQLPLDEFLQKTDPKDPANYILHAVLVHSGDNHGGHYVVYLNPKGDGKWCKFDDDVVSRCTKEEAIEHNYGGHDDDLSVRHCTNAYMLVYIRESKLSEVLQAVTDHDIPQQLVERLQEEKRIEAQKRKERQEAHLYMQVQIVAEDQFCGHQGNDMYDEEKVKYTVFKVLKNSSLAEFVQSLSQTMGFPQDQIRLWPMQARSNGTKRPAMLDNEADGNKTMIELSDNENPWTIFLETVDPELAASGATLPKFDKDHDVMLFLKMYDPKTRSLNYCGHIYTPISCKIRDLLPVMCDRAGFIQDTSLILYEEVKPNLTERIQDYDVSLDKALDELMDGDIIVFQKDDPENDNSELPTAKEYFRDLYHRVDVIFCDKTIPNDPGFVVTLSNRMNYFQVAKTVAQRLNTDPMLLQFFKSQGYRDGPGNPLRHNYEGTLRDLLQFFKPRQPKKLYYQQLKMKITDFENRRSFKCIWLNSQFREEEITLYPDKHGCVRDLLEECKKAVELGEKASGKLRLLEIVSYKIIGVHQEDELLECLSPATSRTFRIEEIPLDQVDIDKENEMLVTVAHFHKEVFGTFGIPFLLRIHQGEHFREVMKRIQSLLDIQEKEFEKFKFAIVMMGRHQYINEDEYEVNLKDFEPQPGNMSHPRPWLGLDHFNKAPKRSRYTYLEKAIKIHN

As for `CC(CC(=O)N1CCC(O)(Cn2cnc3ncccc3c2=O)CC1)c1ccccc1` (stereo not shown) [Compound I-11, 3-((4-hydroxy-1-(3-phenylbutanoyl)piperidin-4-yl)methyl)pyrido[2,3-d]pyrimidin-4(3H)-one], the IC50 was > 10000 nM.

`CC(=O)Nc1ccc2c(=O)n(CC3(O)CCN(C(=O)CC(C)c4ccccc4)CC3)cnc2c1` (stereo not shown) [Compound I-4, N-(3-((4-hydroxy-1-(3-phenylbutanoyl)piperidin-4-yl)methyl)-4-oxo-3,4-dihydroquinazolin-7-yl)acetamide]: the half-maximal inhibitory concentration (IC50) is < 200 nM.

`Cc1ccc2c(=O)n(CC3(O)CCN(C(=O)c4ccc5c(c4)CCN5Cc4ccccc4)CC3)cnc2c1` [Compound I-7, 3-((1-(1-benzylindoline-5-carbonyl)-4-hydroxypiperidin-4-yl)methyl)-7-methylquinazolin-4(3H)-one] showed an IC50 of 1000 to 10000 nM.

The compound `O=C(c1ccc(F)cc1)N1CCC(O)(Cn2cnc3c(Oc4ccc(F)cc4)cccc3c2=O)CC1` [Compound I-10, 3-((1-(4-fluorobenzoyl)-4-hydroxypiperidin-4-yl)methyl)-8-(4-fluorophenoxy)quinazolin-4(3H)-one] gave an IC50 of 1000 to 10000 nM.

For `CC(CC(=O)N1CCC(O)(Cn2cnc3cccnc3c2=O)CC1)c1ccccc1` (stereo not shown) [Compound I-13, 3-((4-hydroxy-1-(3-phenylbutanoyl)piperidin-4-yl)methyl)pyrido[3,2-d]pyrimidin-4(3H)-one], the IC50 was in the range of 200 to 1000 nM.

For `Cc1cccc2c(=O)n(CC3(O)CCN(C(=O)C[C@@H](C)c4ccccc4)CC3)cnc12` [Compound I-6, (R)-3-((4-hydroxy-1-(3-phenylbutanoyl)piperidin-4-yl)methyl)-8-methylquinazolin-4(3H)-one], the 50% inhibitory concentration (IC50) was < 200 nM.

In the case of `COc1ccc2c(=O)n(CC3(O)CCN(C(=O)C[C@@H](C)c4ccccc4)CC3)cnc2c1` [Compound I-5, (R)-3-((4-hydroxy-1-(3-phenylbutanoyl)piperidin-4-yl)methyl)-7-methoxyquinazolin-4(3H)-one], the IC50 was < 200 nM.

For `O=C(c1ccccc1)N1CCC(O)(Cn2cnc3c(-c4ccccc4)cccc3c2=O)CC1` [Compound I-9, 3-((1-benzoyl-4-hydroxypiperidin-4-yl)methyl)-8-phenylquinazolin-4(3H)-one], the half-inhibitory concentration (IC50) is 1000 to 10000 nM.

With `CC(CC(=O)N1CCC(O)(Cn2cnc3cc(N)ccc3c2=O)CC1)c1ccccc1` (stereo not shown) [Compound I-3, 7-amino-3-((4-hydroxy-1-(3-phenylbutanoyl)piperidin-4-yl)methyl)quinazolin-4(3H)-one], the IC50 is < 200 nM.

On to `CC(CC(=O)N1CCC(O)(Cn2cnc3cnccc3c2=O)CC1)c1ccccc1` (stereo not shown) [Compound I-12, 3-((4-hydroxy-1-(3-phenylbutanoyl)piperidin-4-yl)methyl)pyrido[3,4-d]pyrimidin-4(3H)-one], for which the IC50 lay within 1000 to 10000 nM.

As for `Cc1cccc2c(=O)n(CC3(O)CCN(C(=O)CC(C)c4ccccc4)CC3)cnc12` (stereo not shown) [Compound I-2, 3-((4-hydroxy-1-(3-phenylbutanoyl)piperidin-4-yl)methyl)-8-methylquinazolin-4(3H)-one], the 50% inhibitory concentration (IC50) was < 200 nM.

Take `COc1ccc2c(=O)n(CC3(O)CCN(C(=O)CC(C)c4ccccc4)CC3)cnc2c1` (stereo not shown) [Compound I-1, 3-((4-hydroxy-1-(3-phenylbutanoyl)piperidin-4-yl)methyl)-7-methoxyquinazolin-4(3H)-one]: the IC50 was < 200 nM.

Consider `O=C(c1ccccc1)N1CCC(O)(Cn2cnc3cc(-c4ccccc4)ccc3c2=O)CC1` [Compound I-8, 3-((1-benzoyl-4-hydroxypiperidin-4-yl)methyl)-7-phenylquinazolin-4(3H)-one], for which the IC50 was > 10000 nM.

By IC50 is commonly meant the midpoint of a concentration-inhibition curve. A higher IC50 goes with weaker potency.
